Laboratory results: EP0131315A2, “Nasal preparations comprising anticholinergic quaternary ammonium salts” (ISTITUTO DE ANGELI S.p.A., priority 1983, dated 1985)
Where “and” joins values, the source holds several entries; their conditions need not be identical. Identical values can stand only once. Like-named read-outs stand apart in the source and are kept apart here.

Experiments:
[1] = test system: muscarinic receptor of cerebral cortex; assay: Displacement of 3H-NMS from the muscarinic receptor (standard curve, Fig. 1); format: binding; settings: rat cerebral cortex homogenate, 3H-NMS 3.10^-10M, increasing concentrations
Method: This dose corresponds either to 25µl of saline (4% solution) or 5 mg of a 20% gel introduced into both nasal cavities by means of micropipette. After the administration by any route the animals were transfered into metabolic cages and received 3 ml of water by stomach tube. The urine was collected 6,12 and 24 hours after administration and the excreted drug was determined with the following original method which is based on the binding affinity of the drugs to their pharmacological receptors. […] It follows from this that knowing the affinity of the drugs it is possible to assay the concentration of the drugs in biological fluids. For this a suitable in vitro receptor preparation and a radio ligand that can bind specifically to the receptor and can be displaced by the test compound is needed. In the present invention tritiated N-methyl- scopolamine (^3H-NMS) in a final concentration of 3.10^-10M that occupies 50% of the muscarinic receptors was employed. As in vitro receptor preparation we used a homogenate from rat cerebral cortex diluted 1:3000 in 20 mM HEPES, 100 mM NaCl and 10 mM MgCl2 (pH 7.4). After incubation of ^3H-NMS with the receptor preparation receptor bound ligand was separated from free ligand by centrifugation and the amountof the receptor bound ligand was measured as radioactivity (dpm) in the pellet. […]

[2] = Urinary excretion (bioavailability) after intravenous, oral and nasal administration in the rat; drug in urine determined by muscarinic receptor binding assay; format: in vivo, male Sprague-Dawley rats; settings: for amount of the compound found in the urine / dose excreted at 6 h / dose excreted at 24 h / dose excreted at 12 h: 2 mg/rat; for dose excreted at 6 h / dose excreted at 24 h / dose excreted at 12 h / bioavailability: urine, 2 mg; for dose excreted at 6 h: hours 0-6, mean of 10 rats; for dose excreted at 6 h / dose excreted at 24 h / dose excreted at 12 h: read-out: amount of the compound found in the urine; for dose excreted at 12 h: hours 6-12, mean of 10 rats
Method: As a representative drug of this class of compounds N-cyclopropylmethylscopolamine bromide was employed in the method and in the compositions according to the present invention. The bioavailability of this compound after administration by nasal and oral route has been examined and then compared by the following general method. The investigated drug was administered in equal doses by the nasal, oral and intravenous route. 6, 12 and 24 hours after administration the quantitative excretion into the urine for any of the routes of administration was studied. The total amount of the drug excreted during the investigated time intervals was expressed as percentage of the intravenously eliminated amount, considering the latter value as an equivalent for 100% bioavailability.
In detail the following studies have been carried out. For each experiment 10 male Sprague-Dawley rats, weighing 280+ 20g have been used. For the i.v. administration rats fasted for 18 hours were anaesthetized by intraperitoneal sodium pentobarbital solution 2 ml/kg corresponding to 60 mg/kg/rat. A 4% solution of the drug in buffered saline (pH=7.4) was injected into the femoral vein ([…] corresponding to 2 mg of the active ingredient). For the oral administration 18 hours fasted and conscious rats received an 0.2% solution of the drug in saline by means of a stomach tube (1 ml/rat corresponding to 2 mg of the active principle). For the nasal administration the investigated compounds, for example N-cyclopropylmethyl scopolamine bromide, was administered to 18 hours fasted and as above described anaesthetized rats at a dose of 2 mg/rat.
This dose corresponds either to 25µl of saline (4% solution) or 5 mg of a 20% gel introduced into both nasal cavities by means of micropipette. After the administration by any route the animals were transfered into metabolic cages and received 3 ml of water by stomach tube. The urine was collected 6,12 and 24 hours after administration and the excreted drug was determined with the following original method which is based on the binding affinity of the drugs to their pharmacological receptors. […] It follows from this that knowing the affinity of the drugs it is possible to assay the concentration of the drugs in biological fluids. For this a suitable in vitro receptor preparation and a radio ligand that can bind specifically to the receptor and can be displaced by the test compound is needed. In the present invention tritiated N-methyl- scopolamine (^3H-NMS) in a final concentration of 3.10^-10M that occupies 50% of the muscarinic receptors was employed. As in vitro receptor preparation we used a homogenate from rat cerebral cortex diluted 1:3000 in 20 mM HEPES, 100 mM NaCl and 10 mM MgCl2 (pH 7.4). After incubation of ^3H-NMS with the receptor preparation receptor bound ligand was separated from free ligand by centrifugation and the amountof the receptor bound ligand was measured as radioactivity (dpm) in the pellet.

Structure (SMILES): C[N+]1(CC2CC2)C2CC(OC(=O)C(CO)c3ccccc3)CC1C1OC12 (centres unmarked) [N-cyclopropylmethylscopolamine bromide]
- ability to displace 3H-NMS from the muscarinic receptor [1]: inhibit the specific binding between ^3H-NMS and receptor in a dose dependent manner
- PERCENT URINARY EXCRETION BY OTHER ROUTES RELATIVE TO I.V. ADMINISTRATION ([2]; I.V., hours 0-6, rat (relative to total 0-24 h i.v. excretion)): 88.01%
- PERCENT URINARY EXCRETION BY OTHER ROUTES RELATIVE TO I.V. ADMINISTRATION ([2]; I.V., hours 0-24, rat (reference = 100)): 100.00%
- PERCENT URINARY EXCRETION BY OTHER ROUTES RELATIVE TO I.V. ADMINISTRATION ([2]; I.V., hours 6-12, rat): 8.45%
- PERCENT URINARY EXCRETION BY OTHER ROUTES RELATIVE TO I.V. ADMINISTRATION ([2]; I.V., hours 12-24, rat): 3.54%
- PERCENT URINARY EXCRETION BY OTHER ROUTES RELATIVE TO I.V. ADMINISTRATION ([2]; NASAL GEL, hours 0-6, rat): 9.01%
- PERCENT URINARY EXCRETION BY OTHER ROUTES RELATIVE TO I.V. ADMINISTRATION ([2]; NASAL GEL, hours 0-24, rat): 22.85%
- PERCENT URINARY EXCRETION BY OTHER ROUTES RELATIVE TO I.V. ADMINISTRATION ([2]; NASAL GEL, hours 6-12, rat): 8.90%
- PERCENT URINARY EXCRETION BY OTHER ROUTES RELATIVE TO I.V. ADMINISTRATION ([2]; NASAL GEL, hours 12-24, rat): 4.94%
- PERCENT URINARY EXCRETION BY OTHER ROUTES RELATIVE TO I.V. ADMINISTRATION ([2]; NASAL SOLUTION, hours 0-6, rat): 21.23%
- PERCENT URINARY EXCRETION BY OTHER ROUTES RELATIVE TO I.V. ADMINISTRATION ([2]; NASAL SOLUTION, hours 0-24, rat): 23.00%
- PERCENT URINARY EXCRETION BY OTHER ROUTES RELATIVE TO I.V. ADMINISTRATION ([2]; NASAL SOLUTION, hours 6-12, rat): 1.43%
- PERCENT URINARY EXCRETION BY OTHER ROUTES RELATIVE TO I.V. ADMINISTRATION ([2]; NASAL SOLUTION, hours 12-24, rat): 0.34%
- PERCENT URINARY EXCRETION BY OTHER ROUTES RELATIVE TO I.V. ADMINISTRATION ([2]; OS, hours 0-6, rat): 1.02%
- PERCENT URINARY EXCRETION BY OTHER ROUTES RELATIVE TO I.V. ADMINISTRATION ([2]; OS, hours 0-24, rat): 1.40%
- PERCENT URINARY EXCRETION BY OTHER ROUTES RELATIVE TO I.V. ADMINISTRATION ([2]; OS, hours 6-12, rat): 0.30%
- PERCENT URINARY EXCRETION BY OTHER ROUTES RELATIVE TO I.V. ADMINISTRATION ([2]; OS, hours 12-24, rat): 0.08%
- release profile from urinary excretion ([2]; nasal gel, excretion nearly constant 0-6 and 6-12 hours, rat): prolonged release
- absorption after nasal administration as compared to the per oral form ([2]; nasal, both by solution and in the form of gel, rat): 16 times
- amount of the compound found in the urine ([2]; nasal, gel, hours 0-24, individual rats, 1440 min): 5.26 percentage of the total administered dose and 11.19 percentage of the total administered dose and 5.28 percentage of the total administered dose and 5.19 percentage of the total administered dose and 8.40 percentage of the total administered dose and 6.94 percentage of the total administered dose
- amount of the compound found in the urine ([2]; nasal, gel, hours 6-12, individual rats, 720 min): 2.00 percentage of the total administered dose and 4.58 percentage of the total administered dose and 1.63 percentage of the total administered dose and 2.17 percentage of the total administered dose and 3.24 percentage of the total administered dose and 2.90 percentage of the total administered dose and 1.53 percentage of the total administered dose
- amount of the compound found in the urine ([2]; nasal, gel, hours 12-24, individual rats, 1440 min): 1.19 percentage of the total administered dose and 1.9 percentage of the total administered dose and 2.0 percentage of the total administered dose and 0.63 percentage of the total administered dose and 2.04 percentage of the total administered dose and 1.18 percentage of the total administered dose
- amount of the compound found in the urine ([2]; nasal, solution, hours 0-6, individual rats, 360 min): 4.12 percentage of the total administered dose and 6.25 percentage of the total administered dose and 5.53 percentage of the total administered dose and 8.86 percentage of the total administered dose and 2.93 percentage of the total administered dose and 2.68 percentage of the total administered dose and 4.82 percentage of the total administered dose and 11.42 percentage of the total administered dose and 5.17 percentage of the total administered dose and 4.55 percentage of the total administered dose
- amount of the compound found in the urine ([2]; nasal, solution, hours 0-24, individual rats, 1440 min): 4.52 percentage of the total administered dose and 6.59 percentage of the total administered dose and 5.75 percentage of the total administered dose and 9.23 percentage of the total administered dose and 3.17 percentage of the total administered dose and 3.11 percentage of the total administered dose and 5.55 percentage of the total administered dose and 11.88 percentage of the total administered dose and 6.12 percentage of the total administered dose and 5.07 percentage of the total administered dose
- amount of the compound found in the urine ([2]; nasal, solution, hours 6-12, individual rats, 720 min): 0.33 percentage of the total administered dose and 0.25 percentage of the total administered dose and 0.13 percentage of the total administered dose and 0.23 percentage of the total administered dose and 0.19 percentage of the total administered dose and 0.39 percentage of the total administered dose and 0.65 percentage of the total administered dose and 0.28 percentage of the total administered dose and 0.86 percentage of the total administered dose and 0.44 percentage of the total administered dose
- dose excreted at 6 h ([2]; rat, nasal, gel): 2.39%
- dose excreted at 24 h ([2]; rat, nasal, gel, hours 0-24, mean of 10 rats): 6.06%
- dose excreted at 12 h ([2]; rat, nasal, gel): 2.36%
- dose excreted at 24 h ([2]; rat, nasal, gel, hours 12-24, mean of 10 rats): 1.31%
- dose excreted at 6 h ([2]; rat, nasal, solution): 5.63%
- dose excreted at 24 h ([2]; rat, nasal, solution, hours 0-24, mean of 10 rats): 6.1%
- dose excreted at 12 h ([2]; rat, nasal, solution): 0.38%
- dose excreted at 24 h ([2]; rat, nasal, solution, hours 12-24, mean of 10 rats): 0.09%
- dose excreted at 6 h ([2]; rat, iv, intravenous): 23.2%
- dose excreted at 24 h ([2]; rat, iv, intravenous, hours 0-24, individual rats): 31%
- dose excreted at 24 h ([2]; rat, iv, intravenous, hours 0-24, mean of 10 rats): 26.5%
- dose excreted at 12 h ([2]; rat, iv, intravenous): 2.24%
- dose excreted at 24 h ([2]; rat, iv, intravenous, hours 12-24, mean of 10 rats): 0.94%
- dose excreted at 6 h ([2]; rat, po, oral): 0.27%
- dose excreted at 24 h ([2]; rat, po, oral, hours 0-24, mean of 10 rats): 0.37%
- dose excreted at 12 h ([2]; rat, po, oral): 0.08%
- dose excreted at 24 h ([2]; rat, po, oral, hours 12-24, mean of 10 rats): 0.02%
- bioavailability ([2]; after oral administration, rat, read-out: bioavailability): 1.4%
- bioavailability ([2]; nasal route, both galenic formulations, solution and gel, rat, read-out: absolute bioavailability): 23%
